Source: patent publication US20200246364A1, “MEDICAL APPLICATION OF COMPOSITION OF FRUCTOSE-1,6-BISPHOSPHATE AND BLOOD CONCENTRATION STABILIZER THEREOF” (ZHEJIANG UNIVERSITY, priority 2017, published 2020)

Legend:
[1] = test system: U87MG; experiment: 13C-glucose tracing: tricarboxylic acid circulation intermediates, derived amino acids, nucleotide synthesis (LC-MS/MS); assay type: cell-based, human; conditions: 1.6 mM, 36 h
Protocol: Human glioma cell strain (U87MG) was incubated in a medium containing ^13C-labeled glucose (U-^13C-Glc) and treated with 1.6 mM of trisodium fructose-1,6-bisphosphate for 36 h, and then using liquid-mass spectrometry (LC-MS/MS), intracellular tricarboxylic acid circulation intermediates, tricarboxylic acid circulation intermediates-derived amino acids and nucleotide de novo synthesis pathway intermediates were measured.

[2] = test system: Normal human astrocytes (HA); experiment: Regulation of metabolism in normal human astrocytes; assay type: cell-based; conditions: vs control group
Protocol: Normal human astrocytes (HA) were incubated in culture media containing different concentrations of trisodium fructose-1,6-bisphosphate salt (0 mM, 0.25 mM, 0.5 mM, 1 mM), and lactic acid level in the culture media and intracellular ATP level were measured after 12 h and 24 h.
The normal human astrocytes (HA) were incubated in culture media containing different concentrations of trisodium fructose-1,6-bisphosphate salt (0 mM, 0.25 mM, 0.5 mM, 1 mM, 2 mM, 2.5 mM), and after 36 h, reduced glutathione GSH level and a ratio of NADPH/NADP+ in the group of […] trisodium fructose-1,6-bisphosphate in the cells were measured. […] (FIG. 1d, e)

[3] = test system: peripheral neuralgia induced by paclitaxel; experiment: Peripheral neuralgia induced by paclitaxel, hot plate experiment; assay type: in vivo, ICR mice
Protocol: In this study, paclitaxel (2.8 mg/kg, 10 ml/kg) was injected intraperitoneally every other day, 4 times in total (days 1, 3, 5, 7) to induce peripheral neuralgia model in ICR female mice with a body weight of 20-24 g, and this model was used to observe the preventive effect of fructose-1,6-bisphosphate on the peripheral neuralgia caused by the chemotherapeutic agent. The paclitaxel antitumor agent is one of the first-line agents for human malignant tumors. Dose-limiting toxicity of paclitaxel mainly includes neurotoxicity and myelosuppression, the latter has been successfully overcome by using granulocyte colony-stimulating factor. However, the neurotoxicity, behaving as neuropathic pain, is still a worldwide problem, because the pain caused by this chemotherapy is not sensitive to any clinically used analgesics, and thus some patients have to reduce the dose until withdrawing the agent, which seriously affects the effect of the chemotherapy or even causes a failure of the chemotherapy. Some pains caused by the paclitaxel chemotherapy may not be eliminated immediately after the agent withdrawal, and often continues for months or even years, which seriously affects the life quality of tumor patients. In view of this, the peripheral neuralgia caused by paclitaxel is a representative pain after cancer treatment, and the animal pain model induced by paclitaxel is also representative.
A hot plate method was used to screen mice having relatively uniform heat-sensitive responses for experiments. […]
The heat-sensitive response of hind paws of the mice was measured with a hot plate experiment (52° C.±0.3) at 2 pm to 4 pm every day. […] In this way, a latent period of licking or retracting the hind paws was recorded. […] After the paclitaxel injection finished, the fructose-1,6-bisphosphate was continuously administrated and the heat-sensitive responses of the animals in each group were measured. […]

[4] = test system: mouse tumor models; conditions: injected intraperitoneally; cited from earlier work
[5] = test system: mouse liver cancer cells H22; experiment: Tumor growth of mouse liver cancer H22 model; assay type: in vivo, ICR mice; conditions: FBP 500 mg/kg, i.g., 7 days; for Tumor weight: three times per day
Protocol: The treatment was performed three times per day, in which metformin or sitagliptin was administrated 0.5 h before trisodium fructose-1,6-bisphosphate. This is repeated for 7 days, and situations of the animals during the experiments were observed. The animals were sacrificed 24 hours after the last treatment, the tumor masses were taken out and weighed, and the average tumor weight in each group of animals was used as an efficacy index.

[6] = test system: U87MG; experiment: Western Blot of metabolic enzymes and epigenetic proteins, 5-hmC immunocytochemistry; assay type: cell-based, human; conditions: 1.6 mM
Protocol: Human glioma cell strain (U87MG) was cultured in a medium containing 1.6 mM of trisodium fructose-1,6-bisphosphate for 36 h, and then cytoplasm and mitochondria were separated. Levels of tricarboxylic acid circulation intermediates in cytoplasm and mitochondria were respectively measured by LC-MS/MS.
Human glioma cell strain (U87MG) was respectively cultured in the medium containing 1.6 mM of trisodium fructose-1,6-bisphosphate for 0, 1, 3, 6, 12, 24, 36, and 48 h, and the changes of protein levels of enzymes related to fatty acid and nucleic acid biosynthetic pathway were investigated by Western Blot (WB).
Human glioma cell strain (U87MG) was respectively cultured in the medium containing 1.6 mM of trisodium fructose-1,6-bisphosphate for 24 h and 36 h, and then a level of 5-hydroxymethylcytosine (5-hmC) was measured by an immunocytochemistry method.

O=C(COP(=O)(O)O)[C@@H](O)[C@H](O)[C@H](O)COP(=O)(O)O [FBP, fructose-1,6-bisphosphate]
Relative level of Asp (compared with the control group) [1]: 0.16 ± 0.07
Relative level of Glu (compared with the control group) [1]: 0.35 ± 0.04
Relative level of OAA (compared with the control group) [1]: 1.87 ± 0.04
Relative level of α-KG (compared with the control group) [1]: 1.61 ± 0.01
Proportion of 13C-labeled purine/pyrimidine ring in A ([1]; CON 12.41 ± 1.19): 7.70 ± 1.50
Proportion of 13C-labeled purine/pyrimidine ring in U ([1]; CON 20.58 ± 2.30): 8.33 ± 0.90
Proportion of 13C-labeled purine/pyrimidine ring in ATP ([1]; CON 38.26 ± 1.50): 23.77 ± 0.57
Proportion of 13C-labeled purine/pyrimidine ring in UTP ([1]; CON 50.67 ± 0.96): 18.19 ± 0.87
Proportion of 13C-labeled purine/pyrimidine ring in G ([1]; CON 53.75 ± 1.47): 41.83 ± 4.06
intracellular protein level of Cyto C (Western Blot) ([2]; 0.8 mM, 36 h): significantly increased
intracellular protein levels of PFKFB3 and LDH5 (Western Blot) ([2]; 0.8 mM, 36 h): significantly reduced
ratio of NADPH/NADP+ ([2]; 1.6 mM, 36 h): significantly increased
lactic acid level in the culture media ([2]; 0.25, 0.5, 1 mM, 12 h and 24 h): decreased significantly
intracellular ATP level ([2]; 0.25, 0.5, 1 mM, 24 h): increased significantly
reduced glutathione GSH level ([2]; 0.25-2.5 mM, 36 h): significantly increased
hind paw retraction latent period (hot plate 52° C.) ([3]; 400 mg/kg ig once per day, day 7 and any later time point, vs model group): significantly longer
efficacy against peripheral neuralgia over treatment duration ([3]; high-dose FBP (400 mg/kg)): gradually disappears
efficacy against peripheral neuralgia over treatment duration ([3]; low-dose FBP (200 mg/kg)): gradually increases
effective dose for mouse tumor models [4]: 400-450 mg/kg/time
Tumor weight ([5]; H22, metformin experiment, Met 150 mg/kg, Con 1.66 ± 0.29): 0.91 ± 0.23 g
Tumor weight ([5]; H22, sitagliptin experiment, STG 20 mg/kg, Con 1.48 ± 0.34): 0.67 ± 0.28 g
inhibition of tumor growth (inhibition ratio) ([5]; H22, metformin 150 mg/kg, sitagliptin 20 mg/kg): 54.39%
epigenetic related proteins of tumor cells (Ac-Foxo, H3K9ac, H3K9me2) [6]: quickly down-regulated
protein levels of malate shuttle-related enzymes (ME1, MDH1, MDH2, GOT1, GOT2) [6]: decreased significantly over time
protein levels of enzymes related to fatty acid and nucleic acid biosynthesis (CAD, TS, ACL, FASN) ([6]; 0-48 h, Western Blot): decreased significantly over time
level of 5-hydroxymethylcytosine (5-hmC) ([6]; 24 h and 36 h, immunocytochemistry): significantly increased
